The numbers were not newly measured in publication PMC4956526 (Bioconjugate chemistry, 2016), which cites them from elsewhere.

For this data set the following is noted: ref 40 (Lau et al.).

liraglutide: the subcutaneous bioavailability was 66%.
Take semaglutide: the subcutaneous bioavailability is listed as 94%.
